# Results from article PMC8110993, “Structure and antimicrobial activity of NCR169, a nodule-specific cysteine-rich peptide of Medicago truncatula” (Scientific Reports, 2021).
# Where two headings read alike, the source gives them in different places. Where a SMILES comes first, the peptide text is derived from it. Bridges are numbered along the chain shown (N, C = ends). Where no end group is shown, it is not given here.
# Experiments:
# Escherichia coli K-12 = assay type: cell-based; settings: for IC100: E. coli K-12, drop plate method, 2 h treatment at room temperature, 5 mM HEPES-KOH pH 7.0
# Method: (§1) Antimicrobial tests were performed using the drop plate method[12],[47]. Bacterial strains in the logarithmic phase (OD600 = 0.5–0.8) were diluted with 5 mM HEPES–KOH (pH 7.0) to a bacterial culture value of 1 × 10^6 CFU/mL. At OD600 = 0.1, the concentrations of S. meliloti and E. coli K-12 cells were 6.4 × 10^6 CFU/mL and 5.2 × 10^7 CFU/mL, respectively. Equal volumes of bacteria (S. meliloti or E. coli K-12) and NCR169 peptide or PMB were mixed and incubated at room temperature for 2 h. For antimicrobial tests against S. meliloti, 10 μL of each serially diluted mixture was spotted on MHB plates with 2.5 mM MgCl2, and 2.5 mM CaCl2, followed by incubation at 30 °C for 40 h. For antimicrobial tests against E. coli K-12, 10 μL of each mixture was spotted on Mueller Hinton Broth (MHB; MilliporeSigma, Burlington, MA, USA) plates followed by incubation at 30 °C for 13 h.
# (§2) To estimate survival rate, the peptide-treated bacterial mixtures were serially diluted with the buffer before spotting on the plate. Bacterial survival rates were calculated using the colony numbers of each bacterial strain with or without peptide treatment. All experiments were repeated at least four times.
# (§3) Supplementary Table S2. Antimicrobial activities of NCR169 peptides against E. coliK-12 and S. meliloti.
# (§4) Peptide IC50 (μM)* IC100 (μM)
# (§5) E. coli K-12 S. meliloti E. coli K-12 S. meliloti
# (§6) IC50: 50% inhibitory concentration (Calculated using “Dose-response curve” fitting)
# Sinorhizobium meliloti = assay type: cell-based; settings: for IC100: drop plate method, 2 h treatment at room temperature, 5 mM HEPES-KOH pH 7.0
# Method: as §1, §2, §3, §4, §5, §6
# [1] = Liposome sedimentation (binding) assay
# Method: Figure 3 NCR169 binds to the bacterial phospholipid. (A) Circular dichroism (CD) spectra of NCR169 peptides (NCR169-ox1 and -ox2). NCR169 peptides (20 μM) were dissolved in the following solvents: water (No additives), 2 mM DMPC liposomes, 2 mM DMPG liposomes or 30% 2,2,2-trifluoroethanol (TFE). (B) The results of liposome binding assays. The NCR169 peptide (20 μM) was incubated with buffer (No lipid), 2 mM DMPC liposomes, or 2 mM DMPG liposomes. After incubation at room temperature for 30 min, the mixture was ultra-centrifuged at 200,000×g. The supernatant and pellet fractions were analyzed by Tricine-SDS-PAGE. The no lipid sample before ultra-centrifugation was used as the input.
# The phospholipids DMPC and DMPG were purchased from Avanti Polar Lipids (Alabaster, AL, USA). An appropriate amount of phospholipid was dissolved in chloroform and dried under vacuum for 1 h. The lipid film was suspended in water, vortexed, and sonicated for 30 min to form the liposomes.
# The assay was carried out as described previously. Briefly, equal volumes of NCR169 peptide (20 μM) and liposomes (2 mM) were mixed in assay buffer (20 mM HEPES, 150 mM NaCl, pH 7.0) and incubated for 30 min at room temperature, followed by ultracentrifugation at 200,000×g for 15 min at 20 °C. After centrifugation, the supernatant was collected, and the pellet was dissolved in the same volume of assay buffer containing 0.2% Triton X-100. The supernatant and pellet fractions were subjected to Tricine-SDS-PAGE, and peptides were detected by Coomassie Brilliant Blue staining.
# Supplementary Figure S11. NCR 169 M binds to the bacterial phospholipid. (A) Circular dichroism (CD) spectra of NCR169M (20 μM) in water (No additive), 2 mM dimyristoylphosphatidylcholine (DMPC) liposomes, 2 mM dimyristoylphosphatidylglycerol (DMPG) liposomes or 30% 2,2,2-trifluoroethanol (TFE). (B) The result of liposome binding assay. NCR169M (20 μM) was incubated with buffer (No lipid),2 mM DMPC liposomes, or 2 mM DMPG liposomes . After incubation at room temperature for 30 min, the mixture was ultra-centrifuged at 200,000 × g. The supernatant and pellet fractions were analyzed by Tricine-SDS-PAGE. The no lipidsample before ultra-centrifugation was used as the input.
# (also on this page, place not known: [θ] (103 deg cm2 dmol-1) markerkDa input No lipid sup ppt sup ppt sup ppt NCR169M lipid), DMPC 2 DMPG liposomes. lipid sample)
# (1 picture or pasted object on this page, not shown here)
# Supplementary Figure S12. The results of liposome binding assays. (A) NCR169-derived peptide (10 μM) was incubated with buffer (No lipid), 1 mM DMPC liposomes, 1 mM DMPG liposomes. After incubation at room temperature for 30 min, the mixture was ultra-centrifuged at 200,000 × g. The supernatant and pellet fractions were analyzed by Tricine-SDS-PAGE. The no lipid sample before ultra-centrifugation was used as the input. Arrows indicate weak bands. (B) […]
# [2] = NCR169-derived peptide 10 μM, 1 mM DMPG liposomes, 30 min room temperature, 200,000×g, Tricine-SDS-PAGE
Molecule,IC100 (Escherichia coli K-12),"IC50 (Escherichia coli K-12; K-12, 2 h, pH 7)","IC50 (Sinorhizobium meliloti; 2 h, pH 7)",IC100 (Sinorhizobium meliloti; S. meliloti),"Binding to DMPG liposomes [1, 2]","Antimicrobial activity (in words) (Escherichia coli K-12; E. coli K-12, various peptide concentrations)","Antimicrobial activity (in words) (Sinorhizobium meliloti; S. meliloti, various peptide concentrations)","IC50 (Escherichia coli K-12; E. coli K-12, 1 × 10^6 CFU/mL in 5 mM HEPES-KOH pH 7.0, 2 h at room temperature, spotted on MHB plates, 30 °C 13 h, survival rate from colony numbers, dose-response curve fitting, repeated at least four times, read-out: IC50 (50% inhibitory concentration))","IC50 (Sinorhizobium meliloti; S. meliloti, 1 × 10^6 CFU/mL in 5 mM HEPES-KOH pH 7.0, 2 h at room temperature, spotted on MHB plates with 2.5 mM MgCl2 and 2.5 mM CaCl2, 30 °C 40 h, dose-response curve fitting, repeated at least four times, read-out: IC50 (50% inhibitory concentration))","Binding to DMPG liposomes ([1]; peptide 20 μM, 2 mM DMPG liposomes, 20 mM HEPES, 150 mM NaCl, pH 7.0, 30 min room temperature, 200,000×g, supernatant and pellet by Tricine-SDS-PAGE)"
CC[C@H](C)[C@H](NC(=O)[C@H](CCCCN)NC(=O)[C@H](Cc1ccccc1)NC(=O)[C@H](CC(C)C)NC(=O)[C@@H]1CCCN1C(=O)[C@H](CCCCN)NC(=O)[C@H](CCCCN)NC(=O)[C@H](CO)NC(=O)[C@H](CCCCN)NC(=O)[C@H](Cc1ccc(O)cc1)NC(=O)CN)C(=O)N[C@@H](Cc1c[nH]c2ccccc12)C(=O)N[C@@H](CCCCN)C(=O)N[C@H]1CSSC[C@@H](C(=O)N[C@H](C(=O)N[C@@H](CC(C)C)C(=O)N[C@@H](Cc2c[nH]c3ccccc23)C(=O)N[C@@H](Cc2ccc(O)cc2)C(=O)N[C@@H](CCCCN)C(=O)O)C(C)C)NC(=O)[C@H](C(C)C)NC(=O)[C@H](CC(N)=O)NC(=O)[C@H](CCC(=O)O)NC(=O)[C@H](C(C)C)NC1=O [NCR169CL-ox] (H-GYKSKKPLFKIWKCVENVCVLWYK-OH; disulfide 14-19),0.5 µM,140 nM,570 nM,> 128 µM,bound to DMPG liposomes,,,,,
CC[C@H](C)[C@H](NC(=O)[C@H](CCCCN)NC(=O)CN)C(=O)N[C@@H](Cc1c[nH]c2ccccc12)C(=O)N[C@@H](CCCCN)C(=O)N[C@H]1CSSC[C@@H](C(=O)N[C@H](C(=O)N[C@@H](CC(C)C)C(=O)N[C@@H](Cc2c[nH]c3ccccc23)C(=O)N[C@@H](Cc2ccc(O)cc2)C(=O)N[C@@H](CCCCN)C(=O)O)C(C)C)NC(=O)[C@H](C(C)C)NC(=O)[C@H](CC(N)=O)NC(=O)[C@H](CCC(=O)O)NC(=O)[C@H](C(C)C)NC1=O [NCR169CS-ox] (H-GKIWKCVENVCVLWYK-OH; disulfide 6-11),64 µM,5600 nM,45000 nM,> 128 µM,bound to DMPG liposomes,,,,,
CC[C@H](C)[C@@H]1NC(=O)CNC(=O)[C@@H](NC(=O)[C@H](Cc2ccc(O)cc2)NC(=O)[C@H](CCCCN)NC(=O)[C@@H](NC(=O)[C@H](Cc2c[nH]cn2)NC(=O)CNC(=O)[C@@H](NC(=O)[C@H](CC(=O)O)NC(=O)[C@H](CCC(=O)O)NC(=O)CN)[C@@H](C)CC)[C@@H](C)CC)CSSC[C@@H](C(=O)N[C@@H](Cc2ccc(O)cc2)C(=O)O)NC(=O)[C@H](CC(=O)O)NC(=O)[C@H](CC(=O)O)NC(=O)[C@H](C(C)C)NC1=O [NCR169N-ox] (H-GEDIGHIKYCGIVDDCY-OH; disulfide 10-16),> 128 µM,,,> 128 µM,did not,no antimicrobial activity,no antimicrobial activity,,,
"Polymyxin B [PMB, reference compound]",0.031 µM,,,0.25 µM,,,,18 nM,92 nM,
YKSKKPLFKIWK [NCR169M],0.5 µM,83 nM,240 nM,2 µM,,,,,,bound to DMPG liposomes
